Data reported in ChEMBL document CHEMBL1201862, “PubChem BioAssay data set” (2004).
Active and inactive are the calls of the source. Cut-off read from the data, not from the text of the source: actives have a measured IC50 and inactives only a lower limit.

Target: Envelope glycoprotein gp160 (Human immunodeficiency virus 1, UniProt Q6QLK5)
Assay: cell-free HIV fusion peptide-binding blockers – biochemical, uHTS, fluorescence dequenching, […] (AID 1986)

Sequence of Envelope glycoprotein gp160 (Q6QLK5 whole entry, the tested form may be a part): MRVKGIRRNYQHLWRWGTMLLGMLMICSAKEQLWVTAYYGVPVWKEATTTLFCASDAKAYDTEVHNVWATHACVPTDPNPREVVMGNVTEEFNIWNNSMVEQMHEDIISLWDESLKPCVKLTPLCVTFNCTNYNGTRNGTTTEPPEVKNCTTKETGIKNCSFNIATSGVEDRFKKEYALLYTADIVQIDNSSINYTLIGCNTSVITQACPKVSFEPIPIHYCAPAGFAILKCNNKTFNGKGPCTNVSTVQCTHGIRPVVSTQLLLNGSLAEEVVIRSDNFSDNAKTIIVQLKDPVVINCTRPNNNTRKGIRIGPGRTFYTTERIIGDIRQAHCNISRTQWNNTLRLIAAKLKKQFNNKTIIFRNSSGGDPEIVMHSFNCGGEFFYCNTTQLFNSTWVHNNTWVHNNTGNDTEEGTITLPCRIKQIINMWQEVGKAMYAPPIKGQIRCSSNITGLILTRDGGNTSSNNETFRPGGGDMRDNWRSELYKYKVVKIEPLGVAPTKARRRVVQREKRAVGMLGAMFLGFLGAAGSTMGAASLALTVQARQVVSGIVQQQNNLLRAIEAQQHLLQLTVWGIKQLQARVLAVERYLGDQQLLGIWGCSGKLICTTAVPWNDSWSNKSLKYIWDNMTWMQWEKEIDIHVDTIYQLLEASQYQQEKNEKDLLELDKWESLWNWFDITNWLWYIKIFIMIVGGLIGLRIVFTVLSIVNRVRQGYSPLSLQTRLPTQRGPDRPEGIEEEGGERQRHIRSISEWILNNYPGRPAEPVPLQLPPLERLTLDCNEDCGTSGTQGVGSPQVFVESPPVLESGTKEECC

**Q.** COc1ccc(OC)c(/C=C2\SC(=S)N(NS(=O)(=O)c3ccc(C)cc3)C2=O)c1 was tested. Which IC50 did it give?
**A.** 21.4 µM (active)

**Q.** For CC1=C(C#N)C(=O)NC(=O)/C1=C\c1ccc(-c2cc(C)c(C)cc2[N+](=O)[O-])o1, which IC50 is on record?
**A.** 21.8 µM (active)

**Q.** For COc1ccc(-c2csc(NC(=O)CSc3nc(C)nc4sc(C(=O)O)c(C)c34)n2)cc1, which IC50 is on record?
**A.** 9.37 µM (active)
